Source: patent US7026466B1, “Serotonin-gated anion channel” (Massachusetts Institute of Technology, priority 1999, dated 2006)
Where two headings read alike, the source gives them in different places.

Tests used:
C. elegans = assay: Enhanced slowing response (locomotion) of food-deprived C. elegans on a bacterial lawn; format: in vivo
5-HT3a channel [1] = target: T1, 5-HT3a channel (Homo sapiens, UniProt P46098); details: read-out: IC 50, competitive antagonist of the 5-HT3a channel; cited from earlier work
T1 sequence (P46098 24-478): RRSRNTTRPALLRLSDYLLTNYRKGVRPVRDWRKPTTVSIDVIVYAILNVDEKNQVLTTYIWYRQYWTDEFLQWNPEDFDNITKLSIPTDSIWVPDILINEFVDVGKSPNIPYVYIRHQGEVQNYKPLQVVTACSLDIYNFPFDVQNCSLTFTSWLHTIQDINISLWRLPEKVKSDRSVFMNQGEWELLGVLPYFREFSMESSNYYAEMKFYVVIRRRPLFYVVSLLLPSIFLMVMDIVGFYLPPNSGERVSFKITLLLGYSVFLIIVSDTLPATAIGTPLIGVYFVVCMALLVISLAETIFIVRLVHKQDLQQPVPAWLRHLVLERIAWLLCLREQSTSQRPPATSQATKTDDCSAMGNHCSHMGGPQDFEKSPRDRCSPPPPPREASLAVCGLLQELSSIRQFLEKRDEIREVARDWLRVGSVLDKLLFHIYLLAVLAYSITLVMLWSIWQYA

MOD-1 channel = MOD-1 channel (Caenorhabditis elegans, UniProt Q9GQ00); assay: Voltage clamp of MOD-1 heterologously expressed in Xenopus oocytes or HEK cells; format: cell-based, C. elegans
MOD-1 channel, sequence (Q9GQ00 whole entry, looked up): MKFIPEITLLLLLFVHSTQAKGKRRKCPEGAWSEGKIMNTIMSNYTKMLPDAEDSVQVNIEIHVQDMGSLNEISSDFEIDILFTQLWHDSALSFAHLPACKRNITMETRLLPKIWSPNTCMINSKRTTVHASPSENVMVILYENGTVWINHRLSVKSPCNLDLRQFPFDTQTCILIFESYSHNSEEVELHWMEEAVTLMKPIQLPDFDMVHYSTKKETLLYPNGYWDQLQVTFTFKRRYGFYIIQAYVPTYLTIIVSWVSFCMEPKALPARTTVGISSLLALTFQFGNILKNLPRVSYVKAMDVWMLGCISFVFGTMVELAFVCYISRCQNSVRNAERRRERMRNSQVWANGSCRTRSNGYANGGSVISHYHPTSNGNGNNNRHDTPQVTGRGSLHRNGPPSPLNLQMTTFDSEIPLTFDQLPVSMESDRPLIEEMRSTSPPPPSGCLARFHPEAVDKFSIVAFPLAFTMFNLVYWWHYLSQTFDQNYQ

5-HT3a channel [2] = target: T1, 5-HT3a channel
[3] = system: MOD-1-like serotonin-activated current; assay: Voltage clamp of Xenopus oocytes injected with rat brain RNA (MOD-1-like response); format: cell-based; details: −70 mV, BAPTA-AM 200 μM
Method: A method to identify a mammalian serotonin-gated chloride channel was carried out essentially as described above. Oocytes were injected with rat cortex RNA. […] The oocytes were then screened under a voltage clamp, in a buffer containing 96 mM NaCl, 2 mM KCl, 0.3 mM CaCl2, 1 mM MgCl2, and 5 mM HEPES (pH 7.5), and with 100 mM Tris added.
In additional studies, oocytes were injected with poly(A)+ RNA from rat cortex, striatum, or thalamus, as described above. The oocytes were bathed in 200 μM BAPTA-AM for 2 hours, and were then screened under a voltage clamp, in a bath solution containing 2 mM Co^2+ to block 5-HT3a responses. […] FIG. 12 is a representative time trace of a MOD-1-like response from an oocytes injected with rat cortex RNA. These MOD-1-like currents were not detected in oocytes injected with rat RNA from spinal cord, heart, lung, or testes.

[4] = pretreatment of wild-type C. elegans, food-deprived

**Q.** Which results are given for `CN1CCN2c3ccccc3Cc3ccccc3C2C1` (centres unmarked) [mianserin]?
**A.** effect on enhanced slowing response (C. elegans; pre-treatment of mod-1 mutants): did not further affect the defective enhanced slowing response; effect on enhanced slowing response (C. elegans; [4]): prevents food-deprived animals from exhibiting the wild-type enhanced slowing response

**Q.** Which IC50 (5-HT3a channel [1]) does the source give for σ-conotoxin GVIIIA here?
**A.** ~0.05 µM

**Q.** Which “effect on the function of MOD-1” value (MOD-1 channel; approximately 200 μM in the bath) does the source give for `CC(=O)OCOC(=O)CN(CC(=O)OCOC(C)=O)c1ccccc1OCCOc1ccccc1N(CC(=O)OCOC(C)=O)CC(=O)OCOC(C)=O` [BAPTA-AM] here?
**A.** does not affect the function of MOD-1

**Q.** With `NC(CO)(CO)CO` [Tris] as the compound, how does the “block of the 5-HT3 cation channel” value (5-HT3a channel [2]; 100 mM added to buffer) read?
**A.** completely blocks

**Q.** With `NCC(=O)O` [glycine] as the compound, how does the “response from the MOD-1 channel” value (MOD-1 channel) read?
**A.** little or no response

**Q.** With `NCCCC(=O)O` [GABA] as the compound, how does the “response from the MOD-1 channel” value (MOD-1 channel; application of 1 mM agonist) read?
**A.** little or no response

**Q.** With `NCCc1c[nH]c2ccc(O)cc12` [serotonin] as the compound, how does the “oocytes with inward currents” value ([3]; rat cortex RNA, 1 μM serotonin for 1 minute, 100 mM Tris) read?
**A.** about 10%

**Q.** What about the “oocytes with inward currents” value ([3]; rat cortex, striatum or thalamus poly(A)+ RNA, 1 μM serotonin, 2 mM Co2+) of the same compound?
**A.** approximately 33%

**Q.** And the current elicited (MOD-1 channel; 100 nM, holding potential −70 mV)?
**A.** large inward currents

**Q.** And the “concentration of agonist at which serotonin-gated currents are detectable” value (MOD-1 channel; MOD-1 receptors, HEK cell and Xenopus oocyte expression systems)?
**A.** 10 to 50 nM

**Q.** What about the “response of 5-HT3a channels” value (5-HT3a channel [2]; 1 μM serotonin) of the same compound?
**A.** no response is detectable

**Q.** What about the “response of 5-HT3a channels” value (5-HT3a channel [2]; 10 μM serotonin) of the same compound?
**A.** robust current

**Q.** What about the “concentration of agonist at which serotonin-gated currents are detectable” value (5-HT3a channel [2]; 5-HT3 receptors, HEK cell and Xenopus oocyte expression systems) of the same compound?
**A.** > 10 µM

**Q.** Which Ki (MOD-1 channel; MOD-1 in oocytes, read-out: approximate Ki, inhibition of the MOD-1 channel) does the source give for `CSc1ccc2c(c1)C(N1CCN(C)CC1)Cc1ccccc1S2` (centres unmarked) [methiothepin] here?
**A.** ~32 µM

**Q.** What about the “effect on enhanced slowing response” value (C. elegans; pre-treatment of mod-1 mutants) of the same compound?
**A.** did not further affect the defective enhanced slowing response

**Q.** And the “effect on enhanced slowing response” value (C. elegans; [4])?
**A.** prevents food-deprived animals from exhibiting the wild-type enhanced slowing response
